Data set [1] is described as follows: Metabolic stability in human liver microsomes assessed as parent compound remaining at 0.5 uM incubated for 10 mins in presence of NADPH by LC-MS/MS analysis. The data set is classed as ADME, Microsome. The note with it: read-out: Stability.
For data set [2], the target named is AP2-associated protein kinase 1 (Homo sapiens, UniProt Q2M2I8). As to the kind of experiment: Inhibition of recombinant GST-Xa-tagged human AAK1 (30 to 330 residues) using 5-FAM-labelled Alla-KEEQSQITSQVTGQIGWR-NH2 peptide as substrate incubated for 3 hrs in presence of ATP by electrophoretic analysis.
Sequence of AP2-associated protein kinase 1 (Q2M2I8 whole entry, the tested form may be a part): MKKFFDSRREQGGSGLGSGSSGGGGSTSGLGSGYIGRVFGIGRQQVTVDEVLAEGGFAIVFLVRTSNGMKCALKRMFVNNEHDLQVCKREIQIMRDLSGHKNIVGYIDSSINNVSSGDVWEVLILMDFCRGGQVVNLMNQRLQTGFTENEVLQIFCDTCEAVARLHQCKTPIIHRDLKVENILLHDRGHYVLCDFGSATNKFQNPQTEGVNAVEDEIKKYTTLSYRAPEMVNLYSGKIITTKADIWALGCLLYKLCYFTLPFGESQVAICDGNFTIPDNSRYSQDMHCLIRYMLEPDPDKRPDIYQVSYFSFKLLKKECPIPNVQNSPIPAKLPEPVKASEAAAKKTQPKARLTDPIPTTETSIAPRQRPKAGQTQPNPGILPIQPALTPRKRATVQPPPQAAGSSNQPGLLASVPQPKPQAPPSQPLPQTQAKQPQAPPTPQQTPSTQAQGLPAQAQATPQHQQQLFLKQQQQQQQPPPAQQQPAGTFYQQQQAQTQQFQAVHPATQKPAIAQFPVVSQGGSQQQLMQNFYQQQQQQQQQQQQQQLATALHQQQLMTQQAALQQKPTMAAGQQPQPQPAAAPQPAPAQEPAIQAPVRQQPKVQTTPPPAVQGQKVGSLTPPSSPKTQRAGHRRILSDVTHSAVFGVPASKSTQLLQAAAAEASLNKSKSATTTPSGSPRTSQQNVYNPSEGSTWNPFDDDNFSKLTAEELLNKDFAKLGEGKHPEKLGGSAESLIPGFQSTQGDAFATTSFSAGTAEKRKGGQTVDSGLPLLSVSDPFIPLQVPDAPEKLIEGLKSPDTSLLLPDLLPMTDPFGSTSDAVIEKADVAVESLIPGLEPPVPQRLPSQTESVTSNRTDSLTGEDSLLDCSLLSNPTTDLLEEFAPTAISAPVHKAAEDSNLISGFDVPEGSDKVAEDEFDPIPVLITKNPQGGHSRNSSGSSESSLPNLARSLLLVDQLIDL
Data set [3] can be described thus: Metabolic stability in mouse liver microsomes assessed as parent compound remaining at 0.5 uM incubated for 10 mins in presence of NADPH by LC-MS/MS analysis. The data set is classed as ADME, Microsome. The note with it: read-out: Stability.
A short description of data set [4]: Metabolic stability in rat liver microsomes assessed as parent compound remaining at 0.5 uM incubated for 10 mins in presence of NADPH by LC-MS/MS analysis. The data set is classed as ADME, Microsome. The note with it: read-out: Stability.

As to `COc1cc(NC(=O)[C@H](N)CC(C)C)ccc1-c1ccnc(Cl)c1`, the remaining at 10 min, 0.5 µM in data set [1] was 73%; in data set [3] it was 74%; in data set [4] it was 89%. For the same compound, in data set [2], the half-maximal inhibitory concentration (IC50) stood at 240 nM.
Taken in the same sequence, the figures for `COc1cc(NC(=O)C[C@@H](N)C(C)C)ccc1-c1cnco1` were 82%, 7%, 4% and 127 nM.
On the same counts, the results for `CC(C)C[C@@H](N)C(=O)Nc1ccc(-c2ccncc2)cc1` are 80%, 66%, 75% and 15 nM.
On the same counts, the results for `CN[C@H](CC(C)C)C(=O)Nc1ccc(-c2cnco2)c(OC)c1` are 53%, 14%, 39% and 46 nM.
On to `COc1cc(NC(=O)[C@@H](C)N)ccc1-c1cnco1`, for which the remaining at 10 min, 0.5 µM in data set [1] was 100%; in data set [3] it was 97%; in data set [4], 100%. Besides, the half-maximal inhibitory concentration (IC50) in data set [2] came to 1300 nM.
For `CCOc1cc(NC(=O)[C@H](N)CC(C)C)ccc1-c1cnco1`, the remaining at 10 min, 0.5 µM in data set [1] was 64%; in data set [3] it was 54%; in data set [4], 60%. In data set [2], the IC50 amounted to 13 nM.
Taken in the same sequence, the figures for `COc1cc(NC(=O)CCC(C)C)ccc1-c1cnco1` were 61%, 33%, 46% and 80 nM.
With `COc1cc(NC(=O)[C@H](N)CC(C)C)ccc1-c1ccnc(N)c1`, the remaining at 10 min, 0.5 µM in data set [1] stood at 96%; in data set [3] it was 73%; in data set [4], 89%. In data set [2], the IC50 stood at 150 nM.
For the compound `COc1cc(NC(=O)[C@H](N)CC(C)C)ccc1-n1ccnc1`, the remaining at 10 min, 0.5 µM in data set [1] turned out to be 92%; in data set [3], 87%; in data set [4] it was 86%.
For the compound `CC(C)C1CCCNC1C(=O)Nc1ccc(-c2ccncc2)cc1` (racemic), the remaining at 10 min, 0.5 µM in data set [1] amounted to 77%; in data set [3], 76%; in data set [4] it was 60%. Also, the 50% inhibitory concentration (IC50) in data set [2] was 17 nM.
Taken in the same sequence, the figures for `COc1cc(NC(=O)[C@H](N)CC(C)C)ccc1-c1ccncc1` were 91%, 65%, 77% and 85 nM.
With `COc1cc(NC(=O)[C@H]2CCCCN2)ccc1-c1cnco1`, the values for the remaining at 10 min, 0.5 µM in data set [1], in data set [3] and in data set [4] were 94%, 1% and 37%, respectively. In addition, in data set [2], the IC50 is 550 nM.
On the same counts, the results for `CC(C)C[C@@H](N)C(=O)Nc1ccc(-c2cnco2)c(F)c1` are 78%, 30%, 68% and 43 nM.
Turning to `COc1cc(NC(=O)[C@@H](N)CC(C)C)ccc1-c1cnco1`, the results for the remaining at 10 min, 0.5 µM in data set [1], in data set [3] and in data set [4] were 71%, 53% and 40%, respectively. In addition, in data set [2], the half-maximal inhibitory concentration (IC50) stood at 19 nM.
Taken in the same sequence, the figures for `CCC[C@H](N)C(=O)Nc1ccc(-c2cnco2)c(OC)c1` were 70%, 46%, 31% and 350 nM.
Take `COc1cc(NC(=O)[C@H](N)CC(C)(C)C)ccc1-c1cnco1`: in data set [2], the IC50 is 85 nM. Also, the figures for the remaining at 10 min, 0.5 µM in data set [3] and in data set [4] were 65% and 76%, respectively.
As for `COc1cc(NC(=O)[C@H](N)CCC(C)C)ccc1-c1cnco1`, the values for the remaining at 10 min, 0.5 µM in data set [1], in data set [3] and in data set [4] were 75%, 80% and 62%, respectively. In addition, in data set [2], the IC50 stood at 71 nM.
Take `COc1cc(NC(=O)[C@H]2NCCC[C@H]2C(C)C)ccc1-c1cnco1`: the remaining at 10 min, 0.5 µM in data set [1] was 19%; in data set [3], 1%; in data set [4] it was 24%. Also, the half-inhibitory concentration (IC50) in data set [2] was found to be 360 nM.
On the same counts, the results for `COc1cc(NC(=O)Cc2ccccc2)ccc1-c1cnco1` are 78%, 70%, 70% and 430 nM.
On the same counts, the results for `COc1cc(NC(=O)[C@H](N)c2ccccc2)ccc1-c1cnco1` are 63%, 75%, 60% and 42 nM.
For `COc1cc(NC(=O)[C@H](N)CC(C)C)ccc1-n1cncn1`, the remaining at 10 min, 0.5 µM in data set [1] was found to be 79%; in data set [3], 87%; in data set [4], 79%. Besides, in data set [2], the IC50 turned out to be 920 nM.
As to `CNc1cc(-c2ccc(NC(=O)[C@H](N)CC(C)C)cc2OC)ccn1`, the remaining at 10 min, 0.5 µM in data set [1] was found to be 69%; in data set [3], 24%; in data set [4], 22%. The IC50 in data set [2] was found to be 450 nM.
On the same counts, the results for `CC(C)C[C@@H](N)C(=O)Nc1ccc(-c2cnco2)cc1` are 87%, 45%, 71% and 170 nM.
Taken in the same sequence, the figures for `CC(C)C[C@@H](N)C(=O)Nc1ccc(-c2cnco2)c(C#N)c1` were 64%, 57%, 50% and 72 nM.
Taken in the same sequence, the figures for `COc1cc(NC(=O)[C@H](N)Cc2ccccc2)ccc1-c1cnco1` were 68%, 56%, 49% and 630 nM.
For the compound `COc1cc(NC(=O)C(CN)CC(C)C)ccc1-c1cnco1` (stereo not given), the remaining at 10 min, 0.5 µM in data set [1] turned out to be 97%; in data set [3], 78%; in data set [4], 63%.
For the compound `COc1cc(NC(=O)[C@H](N)C2CCCC2)ccc1-c1cnco1`, the values for the remaining at 10 min, 0.5 µM in data set [1], in data set [3] and in data set [4] were 84%, 63% and 73%, respectively. The 50% inhibitory concentration (IC50) in data set [2] came to 13 nM.
On the same counts, the results for `COc1cc(NC(=O)[C@H](N)CC2CCCCC2)ccc1-c1cnco1` are 68%, 78%, 63% and 480 nM.
For `COc1cc(NC(=O)[C@H](N)CC(C)C)ccc1-c1cncnc1`, the half-maximal inhibitory concentration (IC50) in data set [2] worked out at 5700 nM.
Same read-out and setting: under `COc1cc(N(C)C(=O)[C@H](N)CC(C)C)ccc1-c1cnco1` stands 12800 nM.
Turning to `CC[C@@H](C)[C@@H](N)C(=O)Nc1ccc(-c2cnco2)c(OC)c1`, the values for the remaining at 10 min, 0.5 µM in data set [1], in data set [3] and in data set [4] were 86%, 81% and 62%, respectively. Moreover, the concentration for half-maximal inhibition (IC50) in data set [2] was 31 nM.
On the same counts, the results for `CCCC[C@H](N)C(=O)Nc1ccc(-c2cnco2)c(OC)c1` are 65%, 43%, 54% and 260 nM.
As to `COc1cc(NC(=O)[C@H](N)C(C)C)ccc1-c1cnco1`, the results for the remaining at 10 min, 0.5 µM in data set [1], in data set [3] and in data set [4] were 84%, 40% and 42%, respectively.
Turning to `CCCC[C@@H](N)C(=O)Nc1ccc(-c2cnco2)c(OC)c1`, the values for the remaining at 10 min, 0.5 µM in data set [1], in data set [3] and in data set [4] were 87%, 65% and 76%, respectively. The IC50 in data set [2] is 65 nM.
`COc1cc(NC(=O)CC2CCCC2)ccc1-c1cnco1`: the figures for the remaining at 10 min, 0.5 µM in data set [1], in data set [3] and in data set [4] were 64%, 46% and 58%, respectively. Moreover, the IC50 in data set [2] worked out at 80 nM.
Taken in the same sequence, the figures for `CCc1cc(NC(=O)[C@H](N)CC(C)C)ccc1-c1cnco1` were 88%, 45%, 70% and 100 nM.
`COc1cc(NC(=O)[C@H](N)CC(C)C)ccc1-c1cnn(C)c1`: the IC50 in data set [2] was found to be 3900 nM.
As to `CCC[C@@H](N)C(=O)Nc1ccc(-c2cnco2)c(OC)c1`, the remaining at 10 min, 0.5 µM in data set [1] stood at 87%; in data set [3], 49%; in data set [4], 63%. Besides, the half-maximal inhibitory concentration (IC50) in data set [2] was determined as 90 nM.
Taken in the same sequence, the figures for `COc1cc(NC(=O)[C@H](N)CC(C)C)ccc1-c1ccnnc1` were 99%, 70%, 74% and 110 nM.
On the same counts, the results for `COc1cc(NC(=O)[C@H](N)CC2CCC2)ccc1-c1cnco1` are 70%, 53%, 58% and 33 nM.
As for `CC[C@@H](N)C(=O)Nc1ccc(-c2cnco2)c(OC)c1`, the remaining at 10 min, 0.5 µM in data set [1] was 81%; in data set [3] it was 46%; in data set [4] it was 70%. Also, in data set [2], the IC50 came out at 120 nM.
With `COc1cc(NC(=O)[C@H](N)CC(C)C)ccc1-c1cccnc1`, the half-maximal inhibitory concentration (IC50) in data set [2] was found to be 10200 nM.
On to `CC(C)C[C@@H](N)C(=O)Nc1ccc(-c2cnco2)c(OC(F)(F)F)c1`, for which the values for the remaining at 10 min, 0.5 µM in data set [1], in data set [3] and in data set [4] were 69%, 53% and 79%, respectively.

Source of the values: ChEMBL document CHEMBL4828715, “Discovery, Structure-Activity Relationships, and In Vivo Evaluation of Novel Aryl Amides as Brain Penetrant Adaptor Protein 2-Associated Kinase 1 (AAK1) Inhibitors for the Treatment of Neuropathic Pain” (J Med Chem, 2021).
